Entries after “also recorded” stand apart in the source; their conditions may differ.
Experiments:
Assay type in all cases: physicochemical
[1] = Solid stress experiments (humidity, temperature, pressure, grinding, milling; XRPD)
Experimental: Solid stress experiments were conducted on crystalline (3Z,5S)-5-(hydroxymethyl)-1-[(2′-methyl-1,1′-biphenyl-4-yl)carbonyl]pyrrolidin-3-one O-methyloxime and amorphous (3Z,5S)-5-(hydroxymethyl)-1-[(2′-methyl-1,1′-biphenyl-4-yl)carbonyl]pyrrolidin-3-one O-methyloxime and the results shown below in Tables 8 and 9. […] Stressing at 97% RH for the same time caused the material to deliquesce.

[2] = Comparative stability study: slurries stirred in pH 7 phosphate buffer (USP) at 25° C., observation and XRPD; settings: for XRPD pattern of solids after stirring in pH 7 buffer: stirred 24 hours at 25° C., solids air dried overnight (FIG. 4, FIG. 5)
Experimental: Slurries of crystalline (3Z,5S)-5-(hydroxymethyl)-1-[(2′-methyl-1,1′-biphenyl-4-yl)carbonyl]pyrrolidin-3-one O-methyloxime and amorphous (3Z,5S)-5-(hydroxymethyl)-1-[(2′-methyl-1,1′-biphenyl-4-yl)carbonyl]pyrrolidin-3-one O-methyloxime were prepared by weighing directly into vials 100 mg of crystalline or amorphous material, About 3 mL of pH 7 phosphate buffer USP was added to each sample. Samples of each of the slurries were stirred in pH 7 phosphate buffer (USP) at 25° C. for 24 hours. At the end of 24 hours, the solvent was removed from the sample by pipetting out and solids allowed to air dry in the fumehood overnight. Solids were then submitted for XRPD analysis. Both the samples first appeared as white powders. Pictures of the samples were taken at time points corresponding to 0.5 min, 15 min, 1 hour, 3 hours and 24 hours after adding the pH 7 phosphate buffer.

[3] = MB (moisture balance) of the crystalline compound from ethyl acetate; settings: crystallized from ethyl acetate
Experimental: Ethyl acetate was added to amorphous (3Z,5S)-5-(hydroxymethyl)-1-[(2′-methyl-1,1′-biphenyl-4-yl)carbonyl]pyrrolidin-3-one O-methyloxime. The suspension was sonicated in ambient bath tor 60 minutes to provide a clear solution that was further sonicated and cooled over 10 minutes. The clear solution was placed in the freezer for 4 days. The solvent was decanted and the solid was washed with hexane, then dried under nitrogen flow for 30 minutes. The resulting solid was analyzed by XRPD and confirmed to be crystalline (3Z,5S)-5-(hydroxymethyl)-1-[(2′-methyl-1,1′-biphenyl-4-yl)carbonyl]pyrrolidin-3-one O-methyloxime. FIGS. 7 and 9 are the DSC and TGA curves, respectively, obtained front testing this sample.

[4] = Comparative stability study: slurries stirred in pH 7 phosphate buffer (USP) at 25° C., observation and XRPD; settings: in pH 7 phosphate buffer at 25° C., T = 5 min
[5] = Vacuum-drying of the crystalline compound, XRPD comparison (FIG. 2); settings: vacuum-drying at about 45° C. for about 65 hours; crystallized from diethyl ether
Experimental: “After crystallization” means after preparation of the solid and drying at ambient temperature to about 45° C.
23 mg of the solid was then further vacuum-dried at 45° C. for an additional 65 hours. The resulting solid was analyzed by XRPD and confirmed to be the crystalline compound.

[6] = 75% RH, amorphous starting material
[7] = 10,000 psi, 1 minute, crystallized from Diethyl Ether
[8] = Ether stress, solid in solvent at ambient, 3 days (slurry)

Habit/Description ([1]; 40° C., 10 days): Rounded chunks
XRPD Result ([1]; 40° C., 10 days): Amorphous
Habit/Description ([1]; 40° C./75% RH, 1 day): Oil drops
Habit/Description ([1]; 1 minute grind, crystallized from Diethyl Ether): White Solid
Habit/Description ([1]; 70° C., 1 day): Oil puddle
Habit/Description ([1]; 70° C., 6 days): Rounded chunks, clear oil drops
XRPD Result ([1]; 70° C., 6 days): Amorphous
weight gain ([1]; 75% RH, after 1 day): 2.5% weight gain after 1 day
weight gain ([1]; 75% RH, after 5 days): 3.7% weight gain after 5 days
weight gain ([1]; 75% RH, after 12 days): 6.6% weight gain after 12 days
weight gain ([1]; 75% RH, after 20 days): 2.9% weight gain after 20 days
Habit/Description [1, 6]: White jagged flakes, chunks, no
XRPD Result [1, 6]: Amorphous
Habit/Description ([1]; 97% RH, 3 days, amorphous starting material): Deliquesced
Habit/Description ([1]; 97% RH, 3 days, crystallized from Ethyl Acetate): Deliquesced
Habit/Description [1, 7]: White Solid
XRPD Result [1, 7]: remained in crystalline form
Habit/Description [1, 8]: White chunks, bits
XRPD Result [1, 8]: Amorphous
Habit/Description ([1]; Milling with 10μL toluene, after 10 minutes): Stick gum like solid after 10
Habit/Description ([1]; Milling with 10μL toluene, by 70 minutes): minutes, sticky film by 70 minutes
Habit/Description ([1]; Milling with 25 μL water, ~10 minutes): Sticky gum-like solid
Habit/Description ([1]; Solid wet with ethyl ether, after 1 day at ambient): Chunks, few areas of birefringence
Habit/Description ([1]; Solid wet with ethyl ether, after 5 days ambient): Chunks, few areas with extinguish
Observation of sample ([2]; Before adding buffer, listed as Amorphous form): White power
Observation of sample ([2]; Before adding buffer, listed as Crystalline compound): White powder
Observation of sample ([2]; in pH 7 phosphate buffer at 25° C., T = 0, listed as Crystalline compound): White powder dispersed
Observation of sample ([2]; in pH 7 phosphate buffer at 25° C., T = 15 min, listed as Amorphous (3Z,5S)-5-(hydroxymethyl)-1-[(2-methyl-1,1′-biphenyl-4-yl)carbonyl]pyr): opaque sticky material
Observation of sample ([2]; in pH 7 phosphate buffer at 25° C., T = 15 min, listed as Amorphous form): Opaque sticky round lump
Observation of sample ([2]; in pH 7 phosphate buffer at 25° C., T = 15 min, listed as Crystalline compound): White powder dispersed
Observation of sample ([2]; in pH 7 phosphate buffer at 25° C., T = 1 hour, listed as Amorphous form): Opaque sticky round lump
Observation of sample ([2]; in pH 7 phosphate buffer at 25° C., T = 1 hour, listed as Crystalline compound): White solid round lump,
Observation of sample ([2]; in pH 7 phosphate buffer at 25° C., T = 1 hour, listed as crystalline (3Z,5S)-5-(hydroxymethyl)-1-[(2′-methyl-1,1-biphenyl-4-yl)carbonyl]p): white sticky material
Observation of sample ([2]; in pH 7 phosphate buffer at 25° C., T = 3 hours, listed as Amorphous form): Opaque sticky material
Observation of sample ([2]; in pH 7 phosphate buffer at 25° C., T = 3 hours, listed as Crystalline compound): White sticky material
Observation of sample ([2]; in pH 7 phosphate buffer at 25° C., T = 24 hours, listed as Amorphous form): Opaque sticky material
Observation of sample ([2]; in pH 7 phosphate buffer at 25° C., T = 24 hours, listed as Crystalline compound): White sticky material
XRPD pattern of solids after stirring in pH 7 buffer ([2]; listed as amorphous (3Z,5S)-5-(hydroxymethyl)-1-[(2-methyl-1,1′-biphenyl-4-yl)carbonyl]pyr): presence of amorphous phase
weight gain from 5% RH to 95% RH ([3]; MB (moisture balance)): 3.25% weight gain from 5% RH to 95% RH
weight loss from 95% RH to 5% RH ([3]; MB (moisture balance)): 1.44% weight loss from 95% RH to 5% RH
Post MB XRPD ([3]; after moisture balance): Crystalline form and Amorphous
Observation of sample ([4]; listed as Amorphous form): Thick white sticky mass
Observation of sample ([4]; listed as Crystalline compound): White powder dispersed
solid form by XRPD after vacuum-drying [5]: does not change the solid form
SMILES: CO/N=C1/C[C@@H](CO)N(C(=O)c2ccc(-c3ccccc3C)cc2)C1 [(3Z,5S)-5-(hydroxymethyl)-1-[(2′-methyl-1,1′-biphenyl-4-yl)carbonyl]pyrrolidin-3-one O-methyloxime]
XRPD Result ([1]; 1 minute grind (by hand), crystallized from Diethyl Ether): mixture of the crystalline compound and the amorphous compound; also recorded: Crystalline form
XRPD Result ([1]; 75% RH, 3 days, crystallized from Ethyl Acetate): remained unchanged; also recorded: Crystalline form
XRPD pattern of solids after stirring in pH 7 buffer [2]: peaks consistent with those seen in the powder pattern of crystalline
weight loss upon equilibration at 5% RH ([3]; MB (moisture balance)): 0.20% weight loss upon equilibration at 5% RH
